US10626077B2, “Salvianolic acid compound T, preparation method therefor, and use thereof” (TASLY PHARMACEUTICAL GROUP CO., LTD., priority 2013, dated 2020)

Experiments:
[1] = test system: rats with myocardial infarction induced by coronary artery ligation; assay: Myocardial infarction rate (TTC staining) after coronary artery ligation; type: in vivo, SD rats; conditions: for myocardial infarction rate: compared with the model group, P<0.05
Experimental: Clean male SD rats were taken and placed in groups randomly according to the body-weight, including pseudo operation group (distilled water), model group (distilled water), aspirin group, (S)-salvianolic acid T low-dose group, (S)-salvianolic acid T high-dose group, and there were 10 rats in each group. Each group of rats were administrated by gastric administration once a day, continuously for 10 days. […] Recording standard II lead ECG at 5 minutes before surgery, 0 s, 1 min, 5 min, 15 min, 1 h, 4 h after the ligation, to investigate the changes of J point of ECG. Taking out the heart immediately after the end of the experiment, washing away the blood with normal saline, cutting off the atrium and the bottom of the blood vessels, weighing the mass of the ventricle, cutting the ventricle into 5 pieces on average along the atrioventricular groove and putting them into 1% (w/v) TTC solution, dyeing in the water bath at a constant temperature of 37 °C for 5 min, taking digital photos firstly after taking them out, then separating the unstained parts (that is, the infarct parts) and weighing to calculate the percentage of them in the mass of total ventricular (myocardial infarction percentage), and performing t test with ischemia model group. The formula for calculating the infarct percentage is as follows: Infarct percentage (%)=(the mass of pale areas/the mass of the ventricle)×100%

[2] = test system: rats with myocardial infarction induced by coronary artery ligation; assay: J point of ECG in rats with myocardial infarction induced by coronary artery ligation; type: in vivo, SD rats
Experimental: […] Aspirin: 30 mg/kg body-weight. Clean male SD rats were taken and placed in groups randomly according to the body-weight, including pseudo operation group (distilled water), model group (distilled water), aspirin group, (S)-salvianolic acid T low-dose group, (S)-salvianolic acid T high-dose group, and there were 10 rats in each group. Each group of rats were administrated by gastric administration once a day, continuously for 10 days. […] Recording standard II lead ECG at 5 minutes before surgery, 0 s, 1 min, 5 min, 15 min, 1 h, 4 h after the ligation, to investigate the changes of J point of ECG.

[3] = test system: rats with myocardial infarction induced by coronary artery ligation; assay: Blood biochemical index of rats with myocardial infarction induced by coronary artery ligation; type: in vivo, SD rats; conditions: for CK / CK-MB / LD / MDA / SOD: serum
[4] = test system: L929 cells induced by TGF-β1; assay: Inhibition of L929 cell proliferation induced by TGF-β1 (MTT); type: cell-based; conditions: Mus musculus, L929, 72 h, 2 μg/L TGF-β1, 72 h, MTT method
Experimental: L929 cells with a cell population of 5×10^7/L adjusted by DMEM culture solution containing 10% fetal bovine serum were seeded into 96 well plate, cultured for 24 h. Supplementing the same culture medium containing 2 μg/L TGF-β1 and (S)/(R)-salvianolic acid T of different concentrations. There were 6 multiple pores in each group, final concentration of (S)/(R)-salvianolic acid T was set as 0, 1, 3, 10, 20, 40, 80, 150 μmol/L. Removing medium after being cultured for 72 h, assaying the cell activity by MTT method.

[5] = test system: mice pulmonary fibrosis induced by bleomycin; assay: Anti-pulmonary fibrosis experiment in mice induced by bleomycin; type: in vivo, Kunming mice; conditions: 3 weeks
Experimental: Dividing the 40 mice into 4 groups: □ normal control group, given nasal dripping of normal saline, drenched with normal saline; □ model control group:given nasal dripping of bleomycin, drenched with normal saline; □(S)-salvianolic acid T group (16 mg/kg): given nasal dripping of bleomycin, drenched with (S)-salvianolic acid T solution; □(R)-salvianolic acid T group (16 mg/kg): given nasal dripping of bleomycin, drenched with (R)-salvianolic acid T solution; 10 mice in each group.
On the first day of the experiment, the mice were anesthetized with chloral hydrate, each mouse was given disposable nasal dripping of 50 μg bleomycin to establish the pulmonary fibrosis model. On the second day of the experiment, two treatment groups were drenched with (S)/(R)-salvianolic acid T, the model group and the normal group were drenched with equal volume of normal saline, once each day, 3 consecutive weeks. On the 21th day of the experiment, serum was separated from the blood collected from the orbital vein to detect TGF-β1, the mice were killed to take lungs, ground with double distilled water (the ratio of lungs and double distilled water was 1:5 (w/v)) into tissue homogenate, centrifuged to detect the MDA, superoxide dismutase (SOD), catalase (CAT), peroxidase (POD) in the tissues.

[6] = DPPH free-radical scavenging reaction
Experimental: Absorbance of the reaction solution was measured at 517 nm. In this study, vitamin C was regarded as a positive control. Free-radical scavenging rate was calculated in accordance with the following equation: Free-radical scavenging rate (%)=[1−Asample/Acontrol)/Acontrol]×100% Wherein, the Asample means the absorbance of the tested samples, and Acontrol means the absorbance of blank control.

[7] = Determination of reducing capacity (potassium ferricyanide / ferric chloride, absorbance at 700 nm)
Experimental: 0.5 ml of 200 mM phosphate buffer (pH6.8) containing different concentrations of the (S)/(R)-salvianolic acid T and 0.5 ml of 1.0% (w/v) potassium ferricyanide solution were sucked respectively and cooled on an ice bath after being heated on a water bath (50[…]) for 20 min. 0.5 ml of 10% trichloroacetic acid solution was added and centrifuged at […] for 10 min. 1.0 ml of the resulting supernatant was taken, into which 1.0 ml of distilled water and 0.2 ml of 0.1% (w/v) ferric chloride solution were added, stood still for 10 min and the absorbance was measured at 700 nm. Meanwhile, the blank experiment was carried out. Vitamin C is a strongly reducing substance, acting as positive control in this study. Reducing capacity of the sample is represented by subtracting the absorbance of the blank control from the absorbance of the tested sample. Thus, it means the higher absorbance, the stronger reducing capacity.

[8] = 16 mg/kg, lung tissue homogenate
[9] = compared with positive control vitamin C
[10] = sample 0.625 μg/ml, 100 μM DPPH, 20 min, 25° C.
[11] = high-dose group, dosage 10 mg/kg

In the case of `CC(=O)Oc1ccccc1C(=O)O` [Aspirin, reference compound], the myocardial infarction rate ([1]; aspirin group (30 mg/kg)) is reported as “significantly reduce the myocardial infarction rate”, the J point ([2]; aspirin group, dosage 30 mg/kg, gastric once a day for 10 days, before operation) is reported as −0.012 ± 0.005 mv and the J point ([2]; aspirin group, dosage 30 mg/kg, 1 min after operation) is reported as 0.172 ± 0.057 mv. For the same compound, the J point ([2]; aspirin group, dosage 30 mg/kg, 5 min after operation) was 0.184 ± 0.024 mv, the J point ([2]; aspirin group, dosage 30 mg/kg, 15 min after operation) was 0.166 ± 0.025 mv and the J point ([2]; aspirin group, dosage 30 mg/kg, 1 h after operation) was 0.169 ± 0.036 mv. The J point ([2]; aspirin group, dosage 30 mg/kg, 4 h after operation) was 0.172 ± 0.021 mv, the “Na^+—K^+-ATPase” value ([3]; aspirin group, dosage 30 mg/kg) was 0.005 ± 0.001 μmolPi/10^7 RBC/h and the CK ([3]; aspirin group, dosage 30 mg/kg) was 1.01 ± 0.16 U/ml. For the same compound, the CK-MB ([3]; aspirin group, dosage 30 mg/kg) was 841.9 ± 20.3 U/L, the LD ([3]; aspirin group, dosage 30 mg/kg) was 1.75 ± 0.17 mmol/L and the MDA ([3]; aspirin group, dosage 30 mg/kg) was 6.84 ± 0.97 nmol/mL. It also gave an SOD ([3]; aspirin group, dosage 30 mg/kg) of 221.1 ± 24.7 U/ml.

With `O=C(/C=C/c1ccc(O)c(O)c1/C(=C\c1ccc(O)c(O)c1)C(=O)O)O[C@@H](Cc1ccc(O)c(O)c1)C(=O)O` [(S)-salvianolic acid T] the IC50 [4] was 26.1 µM, the “Serum TGF-β1” value ([5]; 16 mg/kg drenched once each day, day 21) was 263 ± 35 ng/L and the CAT [5, 8] was 24.9 ± 2.3 U/g. It also gave an MDA [5, 8] of 324 ± 33 µg/g, a POD [5, 8] of 15.3 ± 2.1 U/g and an SOD [5, 8] of 57.3 ± 4.9 U/g. For the same compound, the “Tissue TGF-β1” value [5, 8] was 541 ± 51 pg/g, the “free-radical scavenging compared with vitamin C” value [6, 9] was “much higher free-radical scavenging than that of the vitamin C” and the Free-radical scavenging rate [6, 10] was 10.32 ± 0.81%. The Free-radical scavenging rate ([6]; sample 1.25 μg/ml) was 28.77 ± 2.26%, the Free-radical scavenging rate ([6]; sample 2.5 μg/ml) was 44.22 ± 1.95% and the Free-radical scavenging rate ([6]; sample 5 μg/ml) was 86.01 ± 8.92%. For the same compound, the Free-radical scavenging rate ([6]; sample 10 μg/ml) was 98.97 ± 5.41%, the “effect on preventing acute myocardial infarction induced by coronary artery ligation” value ([1]; high-dose group compared with aspirin group, FIG. 11 heart biopsy) was “equal effect” and the myocardial infarction rate ([1]; high-dose group) was “significantly reduce the myocardial infarction rate”. For the same compound, the “reducing capacity compared with vitamin C” value [7, 9] was “much stronger than that of vitamin C”, the “reducing capacity (absorbance at 700 nm minus blank control)” value ([7]; sample 3.125 μg/ml) was 0.157 ± 0.027 and the “reducing capacity (absorbance at 700 nm minus blank control)” value ([7]; sample 6.25 μg/ml) was 0.215 ± 0.011. For the same compound, the “reducing capacity (absorbance at 700 nm minus blank control)” value ([7]; sample 12.5 μg/ml) was 0.039 ± 0.012, the “reducing capacity (absorbance at 700 nm minus blank control)” value ([7]; sample 25 μg/ml) was 0.771 ± 0.023 and the “reducing capacity (absorbance at 700 nm minus blank control)” value ([7]; sample 50 μg/ml) was 1.573 ± 0.036. The J point ([2]; high-dose group, dosage 10 mg/kg, gastric once a day for 10 days, before operation) was −0.014 ± 0.005 mv, the J point ([2]; high-dose group, dosage 10 mg/kg, 1 min after operation) was 0.169 ± 0.033 mv and the J point ([2]; high-dose group, dosage 10 mg/kg, 5 min after operation) was 0.146 ± 0.031 mv. The J point ([2]; high-dose group, dosage 10 mg/kg, 15 min after operation) was 0.160 ± 0.027 mv, the J point ([2]; high-dose group, dosage 10 mg/kg, 1 h after operation) was 0.170 ± 0.014 mv and the J point ([2]; high-dose group, dosage 10 mg/kg, 4 h after operation) was 0.153 ± 0.028 mv. It also gave a J point ([2]; low-dose group, dosage 5 mg/kg, gastric once a day for 10 days, before operation) of −0.011 ± 0.003 mv, a J point ([2]; low-dose group, dosage 5 mg/kg, 1 min after operation) of 0.176 ± 0.050 mv and a J point ([2]; low-dose group, dosage 5 mg/kg, 5 min after operation) of 0.204 ± 0.010 mv. For the same compound, the J point ([2]; low-dose group, dosage 5 mg/kg, 15 min after operation) was 0.185 ± 0.096 mv, the J point ([2]; low-dose group, dosage 5 mg/kg, 1 h after operation) was 0.206 ± 0.036 mv and the J point ([2]; low-dose group, dosage 5 mg/kg, 4 h after operation) was 0.194 ± 0.042 mv. For the same compound, the “Na^+—K^+-ATPase” value [3, 11] was 0.005 ± 0.006 μmolPi/10^7 RBC/h, the “Na^+—K^+-ATPase” value ([3]; low-dose group, dosage 5 mg/kg) was 0.004 ± 0.001 μmolPi/10^7 RBC/h and the CK [3, 11] was 0.88 ± 0.22 U/ml. For the same compound, the CK-MB [3, 11] was 846.7 ± 144.2 U/L, the LD [3, 11] was 1.65 ± 0.24 mmol/L and the MDA [3, 11] was 6.72 ± 1.54 nmol/mL. It also gave an SOD [3, 11] of 241.7 ± 19.8 U/ml, a CK ([3]; low-dose group, dosage 5 mg/kg) of 1.18 ± 0.29 U/ml and a CK-MB ([3]; low-dose group, dosage 5 mg/kg) of 970.9 ± 225.1 U/L. For the same compound, the LD ([3]; low-dose group, dosage 5 mg/kg) was 1.67 ± 0.23 mmol/L, the MDA ([3]; low-dose group, dosage 5 mg/kg) was 7.46 ± 1.07 nmol/mL and the SOD ([3]; low-dose group, dosage 5 mg/kg) was 220.3 ± 32.6 U/ml.

With `O=C1O[C@H]([C@@H](O)CO)C(O)=C1O` [Vitamin C, reference compound] the Free-radical scavenging rate [6, 10] was 8.02 ± 0.47%, the Free-radical scavenging rate ([6]; sample 1.25 μg/ml) was 15.56 ± 1.81% and the Free-radical scavenging rate ([6]; sample 2.5 μg/ml) was 21.32 ± 1.89%. It also gave a Free-radical scavenging rate ([6]; sample 5 μg/ml) of 56.29 ± 5.93% and a Free-radical scavenging rate ([6]; sample 10 μg/ml) of 79.51 ± 7.26%.
